A word on the IC50: it is the midpoint of a concentration-inhibition curve.

Activity calls are given as the source filed them. The calls are words filed in the database; no cut-off is given here.

For experiment [1], the system named is HT-29. Kind of experiment: Ratio of 5-fluorouracil IC50 to compound IC50 for human HT-29 cells after 48 hrs by sulforhodamine B assay. It is filed as functional. (In general: The SRB assay estimates cell density from bound dye.)
Experiment [2] deals with HT-29. The experiment in a line: Cytotoxicity against human HT-29 cells after 48 hrs by sulforhodamine B assay. The conditions noted are these: HT-29, 48 h. It is filed as functional, cell-based.
Experiment [3] deals with HCT-116. The experiment in a line: Cytotoxicity against human HCT116 cells after 48 hrs by sulforhodamine B assay. It is filed as functional, cell-based. Particulars: HCT-116, 48 h.
In experiment [4] the test system is HCT-116. The experiment in a line: Ratio of 5-fluorouracil IC50 to compound IC50 for human HCT116 cells after 48 hrs by sulforhodamine B assay. It is filed as functional.
Another experiment concerns Mus musculus. The experiment in a line: Reduction in hepatic glutathione levels in ip dosed mouse relative to control. It is filed as functional. Also on record: scale not given: the % may be the effect or the level left.
Experiment [5] deals with HT-29. The experiment in a line: Cell cycle arrest in human HT-29 cells assessed as accumulation at G2/M phase at 1 uM after 48 hrs by propidium iodide staining-based FACS flow cytometric analysis. It is filed as functional. (In general: A flow cytometer gives signals particle by particle.)
Experiment [6] relates to HT-29. The experiment in a line: Cell cycle arrest in human HT-29 cells assessed as accumulation at S phase at 1 uM after 48 hrs by propidium iodide staining-based FACS flow cytometric analysis. It is filed as functional.
The subject of experiment [7] is HCT-116. The experiment in a line: Cell cycle arrest in human HCT116 cells assessed as accumulation at S phase at 1 uM after 48 hrs by propidium iodide staining-based FACS flow cytometric analysis. It is filed as functional.
For experiment [8], the system named is HCT-116. The experiment in a line: Cell cycle arrest in human HCT116 cells assessed as accumulation at G2/M phase at 1 uM after 48 hrs by propidium iodide staining-based FACS flow cytometric analysis. It is filed as functional.
In experiment [9] the test system is HCT-116. The experiment in a line: Induction of apoptosis in human HCT116 cells assessed as apoptotic cells at 1 uM after 48 hrs by Annexin V-FITC and propidium iodide staining-based FACS flow cytometric analysis (reference value: 2.59%). It is filed as functional.
In experiment [10] the test system is HCT-116. The experiment in a line: Induction of apoptosis in human HCT116 cells assessed as dead cells at 1 uM after 48 hrs by Annexin V-FITC and propidium iodide staining-based FACS flow cytometric analysis (reference value: 49.93%). It is filed as functional.
The test system of experiment [11] is HCT-116. Kind of experiment: Induction of apoptosis in human HCT116 cells assessed as live cells at 1 uM after 48 hrs by Annexin V-FITC and propidium iodide staining-based FACS flow cytometric analysis (reference value: 47.40%). It is filed as functional.
In experiment [12] the test system is HCT-116. The experiment in a line: Induction of apoptosis in human HCT116 cells assessed as apoptotic cells at 1 uM after 24 hrs by Annexin V-FITC and propidium iodide staining-based FACS flow cytometric analysis (reference value: 2.82%). It is filed as functional.
For experiment [13], the system named is HCT-116. Kind of experiment: Induction of apoptosis in human HCT116 cells assessed as dead cells at 1 uM after 24 hrs by Annexin V-FITC and propidium iodide staining-based FACS flow cytometric analysis (reference value: 38.02%). It is filed as functional.
In experiment [14] the test system is HCT-116. The experiment in a line: Induction of apoptosis in human HCT116 cells assessed as live cells at 1 uM after 24 hrs by Annexin V-FITC and propidium iodide staining-based FACS flow cytometric analysis (reference value: 59.15%). It is filed as functional.

On to `O=C1/C(=C/c2ccc(Cl)cc2)CN(C(=O)C(=O)N2C/C(=C\c3ccc(Cl)cc3)C(=O)/C(=C/c3ccc(Cl)cc3)C2)C/C1=C\c1ccc(Cl)cc1`, for which the entries for the “Ratio IC50” value in the experiment with HT-29 [1] and with HCT-116 [4] were 8 and 151, respectively. Besides, the results for the half-inhibitory concentration (IC50) with HT-29 [2] and in the experiment with HCT-116 [3] were 780 nM and 30 nM, respectively.

`COc1cc(/C=C2\CN(C(=O)C(=O)N3C/C(=C\c4cc(OC)c(OC)c(OC)c4)C(=O)/C(=C/c4ccc(OC)c(OC)c4OC)C3)C/C(=C\c3cc(OC)c(OC)c(OC)c3)C2=O)cc(OC)c1OC`: the entries for the “Ratio IC50” value in the experiment with HT-29 [1] and with HCT-116 [4] were 24 and 17, respectively. For the same molecule, the IC50 with HT-29 [2] and with HCT-116 [3] was 270 nM each time.

Turning to `CN(C)c1ccc(/C=C2/CN(C(=O)CC(=O)N3C/C(=C\c4ccc(N(C)C)cc4)C(=O)/C(=C/c4ccc(N(C)C)cc4)C3)C/C(=C\c3ccc(N(C)C)cc3)C2=O)cc1`, the “Ratio IC50” value in the experiment with HT-29 [1] and with HCT-116 [4] was under 1 in each case. Also, the IC50 in the experiment with HT-29 [2] and in the experiment with HCT-116 [3] was over 25000 nM throughout.

For the molecule `COc1ccc(/C=C2/CN(C(=O)CC(=O)N3C/C(=C\c4ccc(OC)cc4)C(=O)/C(=C/c4ccc(OC)cc4)C3)C/C(=C\c3ccc(OC)cc3)C2=O)cc1`, the “Ratio IC50” value amounted to 8 in the experiment on HT-29 [1] and 75 with HCT-116 [4]. The IC50 with HT-29 [2] is 770 nM; with HCT-116 [3], 60 nM.

Regarding `COc1ccc(/C=C2\CN(C(=O)C(=O)N3C/C(=C\c4ccc(OC)c(OC)c4)C(=O)/C(=C/c4ccc(OC)c(OC)c4)C3)C/C(=C\c3ccc(OC)c(OC)c3)C2=O)cc1OC`, the “Ratio IC50” value in the experiment on HT-29 [1] amounted to 11; in the experiment on HCT-116 [4], 151. The IC50 in the experiment with HT-29 [2] turned out to be 568 nM; in the experiment on HCT-116 [3] it was 30 nM.

`O=C1/C(=C\c2ccc(O)cc2)CN(C(=O)CC(=O)N2C/C(=C\c3ccc(O)cc3)C(=O)/C(=C/c3ccc(O)cc3)C2)C/C1=C\c1ccc(O)cc1`: the “Ratio IC50” value in the experiment on HT-29 [1] came to 14; in the experiment on HCT-116 [4] it was 6. In addition, the values for the IC50 in the experiment on HT-29 [2] and in the experiment on HCT-116 [3] were 460 nM and 720 nM, respectively.

As for `CN(C)c1ccc(/C=C2\CN(C(=O)C(=O)N3C/C(=C\c4ccc(N(C)C)cc4)C(=O)/C(=C/c4ccc(N(C)C)cc4)C3)C/C(=C\c3ccc(N(C)C)cc3)C2=O)cc1`, the “Ratio IC50” value in the experiment with HT-29 [1] is 0.34; in the experiment on HCT-116 [4], 0.17. Also, the IC50 with HT-29 [2] was 18600 nM; in the experiment on HCT-116 [3], 27400 nM.

Take `O=C1/C(=C\c2ccc(F)cc2)CN(C(=O)CC(=O)N2C/C(=C\c3ccc(F)cc3)C(=O)/C(=C/c3ccc(F)cc3)C2)C/C1=C\c1ccc(F)cc1`: the “Ratio IC50” value in the experiment with HT-29 [1] stood at 35; in the experiment with HCT-116 [4], 8. Moreover, the IC50 in the experiment on HT-29 [2] came out at 180 nM; in the experiment with HCT-116 [3], 600 nM.

Take `O=C1/C(=C/c2ccc(F)cc2)CN(C(=O)C(=O)N2C/C(=C\c3ccc(F)cc3)C(=O)/C(=C/c3ccc(F)cc3)C2)C/C1=C\c1ccc(F)cc1`: the “Ratio IC50” value came out at 212 in the experiment on HT-29 [1] and 226 with HCT-116 [4]. Also, the IC50 with HT-29 [2] worked out at 30 nM; in the experiment on HCT-116 [3] it was 20 nM.

On to `O=C1/C(=C/c2ccccc2)CNC/C1=C\c1ccccc1`, for which the Activity with Mus musculus is given as 19%.

Consider `Cc1ccc(/C=C2\CN(C(=O)C(=O)N3C/C(=C\c4ccc(C)cc4)C(=O)/C(=C/c4ccc(C)cc4)C3)C/C(=C\c3ccc(C)cc3)C2=O)cc1`, for which the “Ratio IC50” value is recorded as 49 with HT-29 [1] and 50 with HCT-116 [4]. The IC50 in the experiment with HT-29 [2] stood at 129 nM; in the experiment on HCT-116 [3], 90 nM.

As for `O=C1/C(=C\c2ccc(Cl)c(Cl)c2)CN(C(=O)CC(=O)N2C/C(=C\c3ccc(Cl)c(Cl)c3)C(=O)/C(=C/c3ccc(Cl)c(Cl)c3)C2)C/C1=C\c1ccc(Cl)c(Cl)c1`, the “Ratio IC50” value in the experiment on HT-29 [1] turned out to be 1.1; in the experiment with HCT-116 [4], 0.17. The results for the IC50 in the experiment with HT-29 [2] and in the experiment with HCT-116 [3] were 6050 nM and 26700 nM, respectively.

With `O=C1/C(=C/c2ccccc2)CN(C(=O)C(=O)N2C/C(=C\c3ccccc3)C(=O)/C(=C/c3ccccc3)C2)C/C1=C\c1ccccc1`, the “Ratio IC50” value in the experiment on HT-29 [1] came to 454; in the experiment on HCT-116 [4], 113. The IC50 with HT-29 [2] was 14 nM; in the experiment with HCT-116 [3] it was 40 nM.

As to `O=C1/C(=C\c2ccccc2)CN(C(=O)CC(=O)N2C/C(=C\c3ccccc3)C(=O)/C(=C/c3ccccc3)C2)C/C1=C\c1ccccc1`, the “Ratio IC50” value turned out to be 2117 in the experiment on HT-29 [1] and 226 in the experiment on HCT-116 [4]. The IC50 with HT-29 [2] came to 3 nM; in the experiment on HCT-116 [3] it was 20 nM.

On to `O=C1/C(=C\c2ccc(Cl)cc2)CN(C(=O)CC(=O)N2C/C(=C\c3ccc(Cl)cc3)C(=O)/C(=C/c3ccc(Cl)cc3)C2)C/C1=C\c1ccc(Cl)cc1`, for which the entries for the “Ratio IC50” value with HT-29 [1] and in the experiment on HCT-116 [4] were 71 and 90, respectively. For the same molecule, the IC50 is 90 nM in the experiment with HT-29 [2] and 50 nM in the experiment with HCT-116 [3].

`O=c1[nH]cc(F)c(=O)[nH]1` [FLUOROURACIL]: the “Ratio IC50” value in the experiment with HT-29 [1] and in the experiment on HCT-116 [4] was 1 in each case. The values for the IC50 in the experiment with HT-29 [2] and in the experiment on HCT-116 [3] were 6350 nM and 4520 nM, respectively.

Take `COc1cc(/C=C/C(=O)CC(=O)/C=C/c2ccc(O)c(OC)c2)ccc1O` [CURCUMIN]: the figures for the “Ratio IC50” value with HT-29 [1] and with HCT-116 [4] were 0.48 and 0.39, respectively. Moreover, the 50% inhibitory concentration (IC50) with HT-29 [2] stood at 13200 nM; in the experiment with HCT-116 [3], 11500 nM.

Turning to `COc1cc(/C=C2/CN(C(=O)CC(=O)N3C/C(=C\c4cc(OC)c(OC)c(OC)c4)C(=O)/C(=C/c4cc(OC)c(OC)c(OC)c4)C3)C/C(=C\c3cc(OC)c(OC)c(OC)c3)C2=O)cc(OC)c1OC`, the figures for the “Ratio IC50” value with HT-29 [1] and with HCT-116 [4] were 159 and 226, respectively. Also, the IC50 with HT-29 [2] is 40 nM; in the experiment with HCT-116 [3], 20 nM.

With `COc1ccc(/C=C2\CN(C(=O)C(=O)N3C/C(=C\c4ccc(OC)cc4)C(=O)/C(=C/c4ccc(OC)cc4)C3)C/C(=C\c3ccc(OC)cc3)C2=O)cc1`, the results for the “Ratio IC50” value in the experiment with HT-29 [1] and in the experiment on HCT-116 [4] were 37 and 226, respectively. The result in the experiment with HT-29 [5], in the experiment with HT-29 [6], in the experiment with HCT-116 [7] and in the experiment on HCT-116 [8] was inactive. The Activity with HCT-116 [9] amounted to 38.51%; with HCT-116 [10] it was 37.82%; in the experiment with HCT-116 [11], 24.47%; in the experiment on HCT-116 [12], 34.93%; with HCT-116 [13], 21.63%; in the experiment on HCT-116 [14], 44.4%. The IC50 with HT-29 [2] worked out at 170 nM; in the experiment on HCT-116 [3] it was 20 nM.

`O=C(O)/C=C/C(=O)N1C/C(=C\c2ccccc2)C(=O)/C(=C/c2ccccc2)C1` showed an Activity in the experiment on Mus musculus of 29%.

Turning to `COc1ccc(/C=C2/CN(C(=O)CC(=O)N3C/C(=C\c4ccc(OC)c(OC)c4)C(=O)/C(=C/c4ccc(OC)c(OC)c4)C3)C/C(=C\c3ccc(OC)c(OC)c3)C2=O)cc1OC`, the “Ratio IC50” value with HT-29 [1] came to 20; with HCT-116 [4], 25. The IC50 in the experiment on HT-29 [2] worked out at 310 nM; in the experiment on HCT-116 [3], 180 nM.

On to `O=C1/C(=C\c2ccccc2)CN(CCCN2C/C(=C\c3ccccc3)C(=O)/C(=C/c3ccccc3)C2)C/C1=C\c1ccccc1`, for which the “Ratio IC50” value in the experiment on HT-29 [1] stood at 3; in the experiment with HCT-116 [4], 7. Further, the concentration for half-maximal inhibition (IC50) in the experiment on HT-29 [2] turned out to be 2150 nM; in the experiment on HCT-116 [3] it was 680 nM.

On to `Cc1ccc(/C=C2/CN(C(=O)CC(=O)N3C/C(=C\c4ccc(C)cc4)C(=O)/C(=C/c4ccc(C)cc4)C3)C/C(=C\c3ccc(C)cc3)C2=O)cc1`, for which the “Ratio IC50” value amounted to 32 in the experiment on HT-29 [1] and 11 in the experiment with HCT-116 [4]. The results for the IC50 in the experiment on HT-29 [2] and in the experiment on HCT-116 [3] were 200 nM and 410 nM, respectively.

The values above are taken from ChEMBL document CHEMBL2390942, “Novel 3,5-bis(arylidene)-4-piperidone dimers: potent cytotoxins against colon cancer cells” (Eur J Med Chem, 2013).
